Experimental data: patent publication US8748456B2, “Pyrazolo piperidine derivatives as NADPH oxidase inhibitors” (Genkyotex SA, priority 2010, dated 2014)

What was measured:
Type in all cases: cell-based, human
NOX [1] = system: T1, NOX; assay: H2DCF-DA (DCF fluorescence) in HUVEC stimulated with TGF-β; settings: NOX activity as % of the activity in control cells, 'usually'
T1 construct: rows headed: Residual activity of DPI-treated cells; other: H2DCF-DA, HUVEC + TGF-β; NOX activity as % of the activity in control ce
Method: HUVEC are cultured in endothelial basal medium supplemented with hydrocortisone (1 μg/mL, CalbioChem), bovine brain extract (12 μg/mL), gentamicin (50 μg/mL, CalbioChem), amphotericin B (50 ng/mL, CalBioChem EGF (10 ng/mL, and 10% FCS until the fourth passage. When the fifth passage was started, cells were cultured with a lower concentration of FCS (2%) in the absence of EGF, if not indicated otherwise. All experiments were done with cells of the fifth passage. The cells were incubated with OxLDL (oxidized low-density lipoprotein) or its buffer as control for 24 h, before detection of O2^− formation.
HUVEC were plated on coverslips and made quiescent overnight in 0.5% BSA before stimulation with TGF-β. Cells were loaded for 10 minutes with 5 μM CM-H2DCFDA in phenol-red-free medium in the dark and then treated with TGF-β (R&D Systems) in the presence or absence of compounds according to the invention. Cells were then visualized by immunofluorescence microscopy after fixation and staining of the nuclei with DAPI or examined live using confocal microscopy. DCF fluorescence was visualized at an excitation wavelength of 488 nm and emission at 515 to 540 nm. […] For calculation, the absorbance at […] was normalized to absorbance at […] for each individual well. […] NOX activities were expressed as % of the activity in control cells. […]

NOX [2] = assay: Nitroblue tetrazolium (NBT) test of intracellular and extracellular superoxide in cells; settings: DPI 10 μM, NOX activity as % of the activity in control cells, 'usually'
Method: Intracellular and extracellular superoxide was measured by a colorimetric technique using a quantitative nitroblue tetrazolium (NBT) test. SOD-inhibitable conversion of NBT to formazan, a fine blue precipitate, in the presence of superoxide anion was measured using Fluostar Optima spectrometer (BMG labtech). Following incubation with appropriate stimuli, cells were trypsinized (1× Trypsin-EDTA), collected by centrifugation, and washed with PBS to remove medium. 5×10^5 cells were plated on 48-well plates and incubated in Hank's balanced salt solution containing 0.5 mg/mL NBT with or without 800 U/mL SOD in the presence or absence of compounds according to the invention. As a control, DPI was included at a final concentration of 10 μM. After 2.5 h, cells were fixed and washed with methanol to remove non reduced NBT. The reduced formazan was then dissolved in 230 μl of 2M potassium hydroxide and in 280 μl of dimethylsulfoxide. The absorption was measured at 630 nm. For calculation, the absorbance at 630 nm was normalized for each individual well. The mean of the four blank values was subtracted from each corrected value for each time point. NOX activities were expressed as % of the activity in control cells. Residual activity of DPI-treated cells was usually <10%.

NOX [3] = assay: Chemiluminescence (luminol) measurement of ROS in cells; settings: NOX activity as % of the activity in control cells, 'usually'
Method: ROS was measured using the chemiluminescent probe luminol. Cells were cultured and plated as for Amplex Red except that the Amplex Red agent was replaced by 10 μg/mL luminol (Sigma 09235). Light emission was recorded continuously at 37° C. for 60 minutes using the luminescence function of the FluoStar Optima fluorescent plate reader. The mean of the four blank values was subtracted from each corrected value for each time point. NOX activities were expressed as % of the activity in control cells. Residual activity of DPI-treated cells was usually <10%.

NOX [4] = system: T2, NOX; assay: Amplex Red measurement of NOX activity (extracellular hydrogen peroxide) in DMSO-differentiated HL60 cells; settings: DPI 10 μM, NOX activity as % of the activity in control cells, 'usually'
T2 construct: rows headed: Residual activity of DPI-treated cells; other: Amplex Red; DPI 10 μM; NOX activity as % of the activity in control cell
Method: Human acute myeloid leukemia cell line HL-60 was cultured in RPMI 1640 (Invitrogen) supplemented with 10% heat-inactivated calf serum, 2 mM glutamine, 100 U/mL penicillin (Sigma), and 100 μg streptomycin (Sigma) at 37° C. under a humidified atmosphere of 5% CO2. HL60 differentiation to the neutrophil phenotype was triggered by adding Me2SO (final concentration 1.25% v/v for 6 days) to the culture medium.
Extracellular hydrogen peroxide was measured using Amplex UltraRed (Molecular Probes). Cells were trypsinized (1× Trypsin-EDTA), collected by centrifugation, and resuspended in HBSS supplemented with 1% glucose. Cells were seeded into black 96-well plates at a density of 50′000 cells in 200 μl testing buffer (HBSS 1% glucose containing 0.005 U/mL horseradish peroxidase (Roche) and 50 μM Amplex Red in the presence or absence of compounds according to the invention. As a control, DPI was included at a final concentration of 10 μM The plates were placed in the fluorescent Optima Fluorescent plate reader and kept at 37° C. during 20 min. Fluorescence was measured for […] with excitation and emission wavelengths of 544 nm and 590 nm respectively. NOX activities were expressed as % of the activity in control cells. […]
The Table 2 below summarizes the percentage of inhibition of NOX activity as measured by Amplex Red using DMSO-differentiated HL60 cells as described above: […]

Measured: Residual activity of DPI-treated cells

c1ccc([I+]c2ccccc2)cc1 [DPI, Diphenyl-iodonium]
< 10%: all assays above
